Measured values as given in patent publication US20040137082A1, “Compounds and methods for reducing myostatin concentration” (priority 2003, published 2004).

Test system: myostatin protein
Experiment: Column chromatography of muscle homogenate over Cystoseira canariensis fractions in place of the heparin column, eluate read by SDS-PAGE and Western blot
Type: binding, human
Details: fraction used as column in place of heparin, plus sepharose; crude muscle homogenate
Source text: The testing involved the use of column chromatography analysis of Cystoseira canariensis fractions made as described herein. In the initial testing, the method described by Se-Jin-Lee and Alexandra McPherron, “Regulation of Myostatin Activity and Muscle Growth,” Proc. Nat'l Acad. Sci., Vol. 98, No. 16, pp. 9306-9311 (2001) (FIG. 1), was followed. FIG. 2 hereof provides an illustration of the experimental apparatus used. […]
Protein sodium dodecyl sulfate-polyacrylamide gel electrophoresis (“SDS-PAGE”) was performed with gradient gel from 10 to 20% acrylamide concentrations described by Laemmli UK, “Cleavage of Structural Proteins During 15 Assembly of the Head of Bacteriophage T4,” Nature, 227: 680-685 (1970). […] The supernatant fraction of each sample was removed and used to determine protein concentration by measuring absorbance at 280 nanometers (nm). […]
After transfer, membranes were blocked in buffer containing 0.5% Tween-20, 0.2% gelatin, and 3.0% dry milk (blocking buffer) for at least 1 hour at room temperature. […] The relative concentration of myostatin protein in each sample was determined by scanning densitometry. […]

In the case of heparin, the “affinity to myostatin (anti-myostatin Western blot of protein eluted from the chromatography column)” value is reported as “cross-recognized 36-37 kDa protein”.
